# Source: PubChem BioAssay AID1963842 (Molecular Pharmacology Branch, DTP, NCI, 2024)
# System: 677734-321-R-J1-PDC complex spheroid viability
# Test: Anticancer human tumor 677734-321-R-J1-PDC patient-derived soft tissue sarcoma cell line growth inhibition [POLQ]
# Settings: for IC50: curve of first compound; for viability, T/C: stronger effect = lower value
# Outline: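 Patient-derived tumour cells were co-cultured with HUVEC and mesenchymal stem cells as multicellular spheroids at 37 °C. They were treated with POLQ inhibitors (novobiocin, ART-558, RP6685) alone or combined with other agents. Top concentrations were at or near clinical Cmax (otherwise 10 microM; SN-38 at 1 microM), decreasing in half-log steps.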
# 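Also: spheroids exposed to compounds for one week.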
# 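For viability, T/C in this document: 100% = vehicle DMSO treated spheroids.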
smiles,measurement,setting,value
CC1COCCN1c1cc(C2(O)CC3CCC(C2)O3)c2cnn(-c3ccn[nH]3)c2n1 (configuration not stated) + Nc1ccc(C#CCN(C(=O)Cc2ncc(C(F)(F)F)cc2C(F)(F)F)c2ccc(F)cc2)nn1,IC50,second compound 0.0316 µM,< 31.6 nM
same,IC50,second compound 0.1 µM,< 31.6 nM
same,IC50,second compound 0.316 µM,< 31.6 nM
same,IC50,second compound 1 µM,< 31.6 nM
same,IC50,second compound 3.16 µM,< 31.6 nM
same,IC50,second compound 10 µM,< 31.6 nM
same,"viability, T/C","second compound 0.0316 µM, first compound 0.0316 µM",36.8%
same,"viability, T/C","second compound 0.0316 µM, first compound 0.1 µM",20.4%
same,"viability, T/C","second compound 0.0316 µM, first compound 0.316 µM",7.94%
same,"viability, T/C","second compound 0.0316 µM, first compound 1 µM",7.29%
same,"viability, T/C","second compound 0.0316 µM, first compound 3.16 µM",8.37%
same,"viability, T/C","second compound 0.0316 µM, first compound 10 µM",6.3%
same,"viability, T/C","second compound 0.1 µM, first compound 0.0316 µM",48.2%
same,"viability, T/C","second compound 0.1 µM, first compound 0.1 µM",15%
same,"viability, T/C","second compound 0.1 µM, first compound 0.316 µM",10.1%
same,"viability, T/C","second compound 0.1 µM, first compound 1 µM",7.88%
same,"viability, T/C","second compound 0.1 µM, first compound 3.16 µM",10.1%
same,"viability, T/C","second compound 0.1 µM, first compound 10 µM",7.23%
same,"viability, T/C","second compound 0.316 µM, first compound 0.0316 µM",35.1%
same,"viability, T/C","second compound 0.316 µM, first compound 0.1 µM",11.7%
same,"viability, T/C","second compound 0.316 µM, first compound 0.316 µM",8.93%
same,"viability, T/C","second compound 0.316 µM, first compound 1 µM",7.29%
same,"viability, T/C","second compound 0.316 µM, first compound 3.16 µM",7.85%
same,"viability, T/C","second compound 0.316 µM, first compound 10 µM",6.34%
same,"viability, T/C","second compound 1 µM, first compound 0.0316 µM",44.7%
same,"viability, T/C","second compound 1 µM, first compound 0.1 µM",15.9%
same,"viability, T/C","second compound 1 µM, first compound 0.316 µM",8.7%
same,"viability, T/C","second compound 1 µM, first compound 1 µM",7.59%
same,"viability, T/C","second compound 1 µM, first compound 3.16 µM",8.26%
same,"viability, T/C","second compound 1 µM, first compound 10 µM",6%
same,"viability, T/C","second compound 3.16 µM, first compound 0.0316 µM",45.2%
same,"viability, T/C","second compound 3.16 µM, first compound 0.1 µM",12.9%
same,"viability, T/C","second compound 3.16 µM, first compound 0.316 µM",10%
same,"viability, T/C","second compound 3.16 µM, first compound 1 µM",8.6%
same,"viability, T/C","second compound 3.16 µM, first compound 3.16 µM",8.2%
same,"viability, T/C","second compound 3.16 µM, first compound 10 µM",4.99%
same,"viability, T/C","second compound 10 µM, first compound 0.0316 µM",35.5%
same,"viability, T/C","second compound 10 µM, first compound 0.1 µM",26.6%
same,"viability, T/C","second compound 10 µM, first compound 0.316 µM",7.13%
same,"viability, T/C","second compound 10 µM, first compound 1 µM",10.5%
same,"viability, T/C","second compound 10 µM, first compound 3.16 µM",7.26%
same,"viability, T/C","second compound 10 µM, first compound 10 µM",11.5%
